Among the test systems are A549 NSCLC; CAKI-1 renal; DU-145 prostate; HOP-62 NSCLC; HS 578T breast; K-562 leukemia; MALME-3M melanoma; MDA-MB-435; MDA-N; NCI-H226 lung; NCI-H460 lung; NCI-H522 lung; OVCAR-5 ovarian; SF-295 CNS; SF-539 CNS; SNB-75 CNS; SR leukemia; T-47D breast; BT-549 breast; HCT-15 colon.
Test in all cases: inhibition of tumour cell growth, NCI panel, 48 h

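A five-concentration, 48-hour dose response in 96-well plates underlies each endpoint, interpolated linearly between surrounding concentrations. Definition used: TGI = concentration required for complete inhibition of growth.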

With `C/C(=C\CNc1ncnc2c1ncn2CCC(=O)OC(C)(C)C)CO`, the TGI in the assay with A549 NSCLC, in the assay with CAKI-1 renal, in the assay on DU-145 prostate, with HOP-62 NSCLC, in the assay with HS 578T breast and with K-562 leukemia was over 100 µM throughout. Also, the TGI in the assay on MALME-3M melanoma, in the assay on MDA-MB-435, in the assay with MDA-N, in the assay with NCI-H226 lung, in the assay with NCI-H460 lung and in the assay with NCI-H522 lung was over 100 µM each time. Further, the TGI with OVCAR-5 ovarian, with SF-295 CNS, with SF-539 CNS, with SNB-75 CNS, with SR leukemia and in the assay on T-47D breast was over 100 µM throughout.

Consider `O=C1CC(C(OCc2ccccc2)C(OCc2ccccc2)C(OCc2ccccc2)C(COCc2ccccc2)OCc2ccccc2)CC(=O)N1` (stereo unspecified), for which the TGI in the assay with A549 NSCLC, in the assay with BT-549 breast, in the assay with DU-145 prostate, with HCT-15 colon, in the assay on HOP-62 NSCLC and with HS 578T breast was over 100 µM throughout. In addition, the TGI with K-562 leukemia, with MALME-3M melanoma, in the assay with MDA-MB-435, with MDA-N, in the assay with NCI-H460 lung and in the assay with OVCAR-5 ovarian was over 100 µM throughout. Besides, the TGI in the assay on SF-295 CNS, in the assay with SNB-75 CNS and in the assay on SR leukemia was over 100 µM in each case.

Turning to `CCCCOC(=O)NC(Nc1ccc(S(=O)(=O)Nc2ncccn2)cc1)(C(F)(F)F)C(F)(F)F`, the TGI with A549 NSCLC, in the assay with CAKI-1 renal, in the assay on DU-145 prostate, in the assay on HCT-15 colon, with HOP-62 NSCLC and in the assay with HS 578T breast was over 100 µM throughout. Moreover, the TGI in the assay on K-562 leukemia, with MALME-3M melanoma, with MDA-MB-435, in the assay on MDA-N, in the assay on NCI-H226 lung and with NCI-H460 lung was over 100 µM in each case. Further, the TGI with NCI-H522 lung, in the assay with OVCAR-5 ovarian, with SF-295 CNS, with SF-539 CNS, with SR leukemia and with T-47D breast was over 100 µM in each case.

For the compound `CCCCCCCc1cscc1-c1cscc1Br`, the TGI in the assay on A549 NSCLC was over 100 µM; in the assay on BT-549 breast it was over 100 µM; with CAKI-1 renal, 91.2 µM; in the assay with DU-145 prostate, over 100 µM; in the assay with HCT-15 colon it was over 100 µM; in the assay with HOP-62 NSCLC, over 100 µM. Also, the TGI in the assay with K-562 leukemia, in the assay on MALME-3M melanoma, with MDA-MB-435, with MDA-N, in the assay on NCI-H226 lung and with NCI-H460 lung was over 100 µM each time. For the same compound, the TGI in the assay on NCI-H522 lung is 61.9 µM; in the assay on OVCAR-5 ovarian, 89.4 µM; with SF-295 CNS, 79.8 µM; in the assay with SF-539 CNS, over 100 µM; in the assay on SNB-75 CNS, 87 µM; in the assay with SR leukemia, 41.3 µM. Also, the TGI in the assay on T-47D breast came out at 88.3 µM.

Consider `CC(C)COP(C)(=O)C(N)(C(F)(F)F)C(F)(F)F` (stereo unspecified), for which the TGI in the assay on A549 NSCLC, with CAKI-1 renal, with DU-145 prostate, in the assay with HCT-15 colon, in the assay on HOP-62 NSCLC and with HS 578T breast was over 100 µM throughout. The TGI in the assay on K-562 leukemia, in the assay with MALME-3M melanoma, with MDA-MB-435, in the assay with MDA-N, in the assay on NCI-H226 lung and in the assay with OVCAR-5 ovarian was over 100 µM in each case. Besides, the TGI in the assay on SF-295 CNS, in the assay on SF-539 CNS, with SNB-75 CNS, with SR leukemia and with T-47D breast was over 100 µM each time.

Consider `CO[C@H]1O[C@@H]2OC3(C)CCC4[C@H](C)CCC([C@H]1C)[C@]42OO3` (stereo partly specified), for which the TGI with A549 NSCLC, with CAKI-1 renal, with DU-145 prostate, in the assay on HCT-15 colon, in the assay on HOP-62 NSCLC and in the assay on HS 578T breast was over 100 µM each time. For the same compound, the TGI with K-562 leukemia, with MALME-3M melanoma, in the assay on MDA-MB-435, in the assay with MDA-N, with NCI-H226 lung and in the assay with NCI-H460 lung was over 100 µM each time. For the same compound, the TGI in the assay with NCI-H522 lung, in the assay with OVCAR-5 ovarian, in the assay with SF-295 CNS, in the assay with SF-539 CNS, in the assay with SNB-75 CNS and with SR leukemia was over 100 µM in each case. In the assay with T-47D breast, this compound gave a TGI of over 100 µM.

As to `CCC(c1ccc(OC)cc1)C1NC(=S)NC1=O` (stereo unspecified), the TGI with A549 NSCLC, with CAKI-1 renal, in the assay on DU-145 prostate, in the assay on HCT-15 colon, in the assay with HOP-62 NSCLC and in the assay with HS 578T breast was over 50 µM throughout. Further, the TGI in the assay with K-562 leukemia, in the assay on MALME-3M melanoma, with MDA-MB-435, in the assay on MDA-N, in the assay with NCI-H226 lung and in the assay on NCI-H460 lung was over 50 µM throughout. Further, the TGI in the assay with NCI-H522 lung, with OVCAR-5 ovarian, in the assay on SF-295 CNS, with SF-539 CNS, in the assay with SNB-75 CNS and in the assay on T-47D breast was over 50 µM in each case.

In the case of `O=c1oc2ccc3ccccc3c2cc1-c1cn2c(n1)sc1ccccc12`, the TGI in the assay on A549 NSCLC, with BT-549 breast, in the assay with CAKI-1 renal, in the assay with DU-145 prostate, in the assay on HCT-15 colon and with HOP-62 NSCLC was over 100 µM throughout. Moreover, the TGI in the assay with HS 578T breast, with K-562 leukemia, in the assay on MALME-3M melanoma, with MDA-MB-435, in the assay with MDA-N and with NCI-H226 lung was over 100 µM in each case. The TGI with NCI-H460 lung, in the assay with NCI-H522 lung, in the assay with OVCAR-5 ovarian, in the assay with SF-295 CNS and in the assay on SNB-75 CNS was over 100 µM each time.

The values above are taken from PubChem BioAssay (NCI).
